Laboratory results from ChEMBL document CHEMBL3352495, “Discovery of the 1,7-diazacarbazole class of inhibitors of checkpoint kinase 1” (Bioorg Med Chem Lett, 2014).

Assays:
Type in all cases: ADME, organism-based
[1] = Cmax in Sprague-Dawley rat at 5 mg/kg, po administered as solution; design: dose 5 mg/kg, route oral; settings: in vivo
[2] = Cmax in CD1 mouse at 5 mg/kg, po administered as solution; design: dose 5 mg/kg, route oral; settings: in vivo
[3] = Oral bioavailability in CD1 mouse at 5 mg/kg administered as suspension; settings: in vivo
Mus musculus [4] = test: Dose normalized AUC in CD1 mouse at 5 mg/kg, po administered as suspension; design: dose 5 mg/kg, route oral; settings: in vivo
[5] = AUC in CD1 mouse at 0.5 mg/kg, iv; design: dose 0.5 mg/kg, route intravenous; settings: plasma
[6] = Half life in CD1 mouse at 5 mg/kg, po administered as suspension; design: dose 5 mg/kg, route oral; settings: in vivo
Mus musculus [7] = test: Dose normalized AUC in CD1 mouse at 0.5 mg/kg, iv; design: dose 0.5 mg/kg, route intravenous; settings: in vivo
[8] = AUC in CD1 mouse at 5 mg/kg, po administered as suspension; design: dose 5 mg/kg, route oral; settings: plasma
[9] = AUC in NCR mouse at 25 mg/kg, po administered as solution; design: dose 25 mg/kg, route oral; settings: plasma
[10] = Half life in NCR mouse at 25 mg/kg, po administered as suspension; design: dose 25 mg/kg, route oral; settings: in vivo
[11] = Clearance in CD1 mouse at 0.5 mg/kg, iv; design: dose 0.5 mg/kg, route intravenous; settings: in vivo
Rattus norvegicus [12] = test: Dose normalized AUC in Sprague-Dawley rat at 1 mg/kg, iv; design: dose 1 mg/kg, route intravenous; settings: in vivo
Mus musculus [13] = test: Dose normalized AUC in CD1 mouse at 5 mg/kg, po administered as solution; design: dose 5 mg/kg, route oral; settings: in vivo
[14] = Half life in CD1 mouse at 5 mg/kg, po administered as solution; design: dose 5 mg/kg, route oral; settings: in vivo
[15] = Cmax in CD1 mouse at 5 mg/kg, po administered as suspension; design: dose 5 mg/kg, route oral; settings: in vivo
[16] = Cmax in NCR mouse at 25 mg/kg, po administered as suspension; design: dose 25 mg/kg, route oral; settings: in vivo
Mus musculus [17] = test: Dose normalized AUC in NCR mouse at 25 mg/kg, po administered as suspension; design: dose 25 mg/kg, route oral; settings: in vivo
Rattus norvegicus [18] = test: Dose normalized AUC in Sprague-Dawley rat at 5 mg/kg, po administered as solution; design: dose 5 mg/kg, route oral; settings: in vivo
[19] = Oral bioavailability in Sprague-Dawley rat at 5 mg/kg administered as solution; settings: in vivo
[20] = Oral bioavailability in CD1 mouse at 5 mg/kg administered as solution; settings: in vivo
[21] = Half life in Sprague-Dawley rat at 5 mg/kg, po administered as solution; design: dose 5 mg/kg, route oral; settings: in vivo
[22] = Clearance in Sprague-Dawley rat at 1 mg/kg, iv; design: dose 1 mg/kg, route intravenous; settings: in vivo
[23] = Half life in CD1 mouse at 0.5 mg/kg, iv; design: dose 0.5 mg/kg, route intravenous; settings: in vivo
[24] = AUC in Sprague-Dawley rat at 5 mg/kg, po administered as solution; design: dose 5 mg/kg, route oral; settings: plasma
[25] = Half life in Sprague-Dawley rat at 1 mg/kg, iv; design: dose 1 mg/kg, route intravenous; settings: in vivo
[26] = Cmax in NCR mouse at 25 mg/kg, po administered as solution; design: dose 25 mg/kg, route oral; settings: in vivo
[27] = Half life in NCR mouse at 25 mg/kg, po administered as solution; design: dose 25 mg/kg, route oral; settings: in vivo
[28] = Oral bioavailability in NCR mouse at 25 mg/kg administered as solution; settings: in vivo
[29] = AUC in Sprague-Dawley rat at 1 mg/kg, iv; design: dose 1 mg/kg, route intravenous; settings: plasma
[30] = Oral bioavailability in NCR mouse at 25 mg/kg administered as suspension; settings: in vivo
[31] = AUC in NCR mouse at 25 mg/kg, po administered as suspension; design: dose 25 mg/kg, route oral; settings: plasma
Mus musculus [32] = test: Dose normalized AUC in NCR mouse at 25 mg/kg, po administered as solution; design: dose 25 mg/kg, route oral; settings: in vivo
[33] = AUC in CD1 mouse at 5 mg/kg, po administered as solution; design: dose 5 mg/kg, route oral; settings: plasma

CN1CCN(c2ccc(-c3cnc4[nH]c5cnc(C#N)cc5c4c3)cc2)CC1
Cmax [1]: 930 nM | Cmax [2]: 450 nM | bioavailability [3]: 50% | AUC/dose (Mus musculus [4]): 0.13 kg·h/L | AUC [5]: 0.34 µM·h | half-life [6]: 2.9 h | AUC/dose (Mus musculus [7]): 0.25 kg·h/L | AUC [8]: 1.72 µM·h | AUC [9]: 8.46 µM·h | half-life [10]: 4 h | clearance [11]: 67 mL/min/kg | AUC/dose (Rattus norvegicus [12]): 0.67 kg·h/L | AUC/dose (Mus musculus [13]): 0.14 kg·h/L | half-life [14]: 1.6 h | Cmax [15]: 200 nM | Cmax [16]: 910 nM | AUC/dose (Mus musculus [17]): 0.14 kg·h/L | AUC/dose (Rattus norvegicus [18]): 0.42 kg·h/L | bioavailability [19]: 62% | bioavailability [20]: 54% | half-life [21]: 2.3 h | clearance [22]: 27 mL/min/kg | half-life [23]: 5.8 h | AUC [24]: 5.64 µM·h | half-life [25]: 1.8 h | Cmax [26]: 2510 nM | half-life [27]: 2.1 h | bioavailability [28]: 50% | AUC [29]: 1.81 µM·h | bioavailability [30]: 55% | AUC [31]: 9.37 µM·h | AUC/dose (Mus musculus [32]): 0.13 kg·h/L | AUC [33]: 1.85 µM·h
